Patent US20080306019A1, “Dopamine Receptor Agonists in the Treatment and Prevention of Hiv-Induced Dementia” (priority 2005, published 2008)
“Also recorded” adds a separate entry of the source.

How the values were obtained:
rat hippocampal neurons [1] = experiment: Live/Dead (Calcein/Ethidium) viability of rat hippocampal neuronal cultures; details: hydrochloride
[2] = tested on: ovariectomized female Sprague-Dawley rats; experiment: IV cocaine-induced locomotor activity after intra-accumbal Tat (1-72) (Example 14); assay type: in vivo, rat; details: for mean total activity (±SEM): IV cocaine 3.0 mg/kg; for mean TIC (time in center): across days; for TIC, acute (Day 1): acute IV cocaine
Source text: Animals: Sixty-four adult ovariectomized female, Sprague-Dawley rats (70 days old) were obtained from Harlan Laboratories, Inc. (Indianapolis, Ind.). All rats were surgically implanted with an Intracath IV catheter (22 ga, Becton/Dickinson General Medical Corp., Grand Prarie, Tex.), which was used as a SC, dorsally implanted port for chronic IV injections. The subcutaneous implantable access port for rats was developed and described by Mactutus et al. (1994). Ovariectomized rats were used because estrogen is protective against the neurotoxic effects of Tat (Wallace et al., 2006). Serial ovariectomy and indwelling jugular catheter surgeries occurred for all rats during the same procedure. Upon arrival at the animal care facilities, rats were placed in quarantine for 7 days, and then transferred to the colony. Animals were pair housed throughout the experiment and the catheters were flushed daily with 0.2 ml of heparinized (2.5%) saline. Rodent food (Pro-Lab Rat, Mouse Hamster Chow #3000) and water were provided ad lib. The colony was maintained at 21±2° C., 50%±10% relative humidity and a 12L: 12D cycle with lights on at 0700 h (EST).
Locomotor activity: Habituation: Rats in the vehicle-saline (VEH-SAL), Tat-saline (Tat-SAL), vehicle-cocaine (VEH-COC), and Tat-cocaine (TAT-COC) groups were habituated to the locomotor activity chambers for two 60-min sessions, one/day. Twenty four hours after the second habituation session, all rats were injected with IV saline and placed into the activity chambers for 30-min to measure baseline activity. The activity monitors were square (40×40 cm) open-field chambers (Hamilton-Kinder Inc., Poway, Calif.) that detected free movement of animals by infrared photocell interruptions. This equipment used an infrared photocell grid (32 emitter/detector pairs) to measure locomotor activity. The chambers were converted into round (˜40 cm diameter) compartments by adding clear Plexiglas inserts; photocell emitter/detector pairs were tuned by the manufacturer to handle the extra perspex width. Circular chambers increase the sensitivity to detect locomotor activity (Harrod et al., 2006). All activity monitors were located in an isolated room.
Intra-accumbal Tat microinjection: All rats received intra-accumbal Tat or vehicle (VEH; physiological saline) injections approximately 24 hours after the saline baseline activity session and then received subsequent IV injections of cocaine (3.0 mg/kg/injection) or saline according to a 2×2, protein×drug, design. […] Tat was therefore administered to the core region of the N Acc to determine if the sensitization process was disrupted. Rats were administered intra-accumbal Tat or VEH injections according to methods previously described (Bansal et al., 2000; Aksenov et al., 2003). Briefly, rats were anesthetized using a mixture of ketamine hydrochloride and xylazine by intraperatoneal (IP) injection (7.5 mg ketamine/100 gb.wt. […].). 15 μg/l of Tat was injected bilaterally, using a silanized Hamilton Syringe at the following coordinates: 1.8 mm anterior, ±1.6 mm lateral, and 7.0 mm ventral from bregma on the skull surface, over an interval of one minute, with a one minute tissue recovery period before withdrawal.
IV cocaine-induced locomotor activity: Twenty-four hours after rats received bilateral intra-accumbal injections, IV cocaine or saline was administered. The animals were immediately placed into locomotor activity chambers following cocaine or saline. The animals' locomotor activity response to cocaine was assessed for 30 minutes on only two occasions: immediately after the first (Day 1) and last (Day 14) cocaine injections; however, rats were administered daily IV cocaine or saline injections in the home cage on days 2-13. […]

rat hippocampal neurons [3] = experiment: Protein carbonyl immunoreactivity in rat hippocampal cell cultures; details: 48-hrs treatment
human fetal neurons = details: human fetal neuronal cultures, Turchan et al. 2001; cited from earlier work
[4] = cited from earlier work
[5] = repeated daily dosing in rat (Robinson et al. 1994)

COC(=O)[C@H]1[C@@H](OC(=O)c2ccccc2)C[C@@H]2CC[C@H]1N2C.Cl [cocaine, Cocaine hydrochloride]
neuronal cell death / Tat toxicity, Tat + cocaine vs Tat alone (rat hippocampal neurons [1]; 50 nM Tat + 1.5-1.6 μM cocaine, 48 hours): significantly higher in cultures subjected to both Tat and cocaine; also recorded: enhanced Tat toxicity | toxicity / cell viability, cocaine alone (rat hippocampal neurons [1]; cocaine alone (0.1-10 μM; 1.5 μM)): No toxicity; also recorded: did not change cell viability | total activity, repeated IV cocaine ([2]; 14 days): induced behavioral sensitization of total activity | mean total activity (±SEM) ([2]; 10 minute): 2363.0 (±120.0) | mean total activity (±SEM) ([2]; 20 minute): 1660.6 (±103.8) | mean total activity (±SEM) ([2]; 30 minute): 1494.01 (±66.5) | mean TIC (time in center) ([2]; 10 minute): 116.6 (±12.4) seconds | mean TIC (time in center) ([2]; 20 minute): 152.3 (±20.1) seconds | mean TIC (time in center) ([2]; 30 minute): 160.3 (±19.6) seconds | TIC, acute (Day 1) ([2]; 10 minute): 72.1 (±15.0) seconds | TIC, acute (Day 1) ([2]; 20 minute): 100.2 (±19.0) seconds | TIC, acute (Day 1) ([2]; 30 minute): 108.9 (±24.4) seconds | total activity, acute cocaine (Day 1) ([2]; rat, in vivo): did not increase total activity | locomotor composite incidence scores, VEH-COC vs VEH-SAL ([2]; repeated (day 14) cocaine): significantly higher locomotor composite incidence scores | levels of protein oxidation, Tat + cocaine vs Tat alone (rat hippocampal neurons [3]): higher than in cultures treated with just Tat alone | cocaine level not neurotoxic (prior work) (human fetal neurons): ≤ 16 µM | time to peak arterial plasma levels ([4]; 3.0 mg/kg/injection IV (Booze et al. 1997)): within one-minute | t1/2 in plasma ([4]; IV 3.0 mg/kg, rats (Booze et al., 1997)): 12 to 13 min | fetal brain levels of cocaine [4, 5]: 1750 ± 250 ng/mL | fetal plasma levels of cocaine [4, 5]: 500 ng/mL
